Source: paper PMC6968775, “Assessment of contribution of BCRP to intestinal absorption of various drugs using portal‐systemic blood concentration difference model in mice” (Pharmacology Research & Perspectives, 2020)

Legend:
[1] = tested on: P‐gp; details: Caco‐2 permeability study; unpublished data; ref Fujita et al, manuscript in preparation; cited from earlier work
[2] = Pharmacokinetics after iv and oral administration, P‐S difference method, Mdr1a/1b(−/−) mice; type: in vivo
Protocol: (§1) Male Mdr1a/1b(−/−) and Bcrp(−/−) mice, and WT mice of the same genetic background (FVB) were obtained from Taconic Farms (Germantown, NY, USA). […] Food and water were available ad libitum. All experiments were carried out in accordance with the principles and procedures outlined in the National Institutes of Health Guide for the Care and Use of Laboratory.
(§2) All the mice were fasted overnight with free access to tap water. In the intravenous administration studies, model compounds were administered via the tail vein at doses of 1 mg/kg (n = 3). Following administration, blood samples were collected from the abdominal vein of the anesthetized mice at 0.083, 0.17, 0.5, 1, 2, 4, and 8 hours. […] Following administration, blood samples were taken from the portal and abdominal veins of the anesthetized mice at 0.083, 0.17, 0.5, 1, 2, 4, and 8 hours. The plasma samples were separated by centrifugation at 14 000g for 10 minutes at 4°C and stored at −30°C until analysis.
(§3) After organic layer was evaporated at 60°C, the resultant residues were dissolved in a mobile phase. For the determination of topotecan and sulfasalazine, plasma samples were mixed with acetonitrile, centrifuged at 750 g for 10 minutes at 4°C, and the supernatants were collected. After the evaporation of the supernatants, the residues were dissolved in a mobile phase, and acidified with phosphoric acid for topotecan. All drugs were analyzed by HPLC system (Shimadzu LC‐10AS pump, Shimadzu SIL‐10A autosampler) equipped with a reverse‐phase column (COSMOSIL 5C18‐AR‐II, 3.5‐μm […], 4.6 × 150 mm).
(§4) Elimination rate constant (k e) was determined by the least squares regression analysis of plasma concentration vs time curve. Elimination half‐life (t 1/2) was calculated using Eq.1:(1) t1/2=ln2/ke
(§5) Area under plasma concentration‐time curve (AUC) and area under the first moment curve (AUMC) from time 0 to infinity were calculated by trapezoidal rule.
(§6) Absorption rate constant (k a) after oral administration was calculated by the nonlinear least squares fitting with program MULTI.12
(§7) BA was calculated by Eq.5:(7) BA=AUCoral/AUCiv×Doseiv/Doseoral×100 where AUCoral is AUC after oral administration. Doseiv and Doseoral are administered dose in the intravenous and oral administration study, respectively.
(§8) Hepatic availability (F h) was calculated by Eq.6:(8) Fh=F/Fa×Fg

[3] = Pharmacokinetics after iv and oral administration, P‐S difference method, wild‐type mice; type: in vivo
Protocol: as §1, §2, §3, §4, §5, §6, §7, §8

[4] = human; cited from earlier work
[5] = Blood/plasma concentration ratio (R b) in fresh whole blood; type: in vitro ADME, FVB mice; details: fresh whole blood, FVB mouse whole blood, 37°C
Protocol: Similarly, the model compounds were added to plasma, and reference blood samples were obtained according to the same procedure. These concentrations of drugs in each sample were analyzed using HPLC (C B and C P, respectively). R b value was calculated by dividing C B by C P.

[6] = tested on: P‐gp; details: in vivo (mice); calculated from F a F g in WT, Bcrp(−/−) and Mdr1a/1b(−/−) mice (Eq. 12)
[7] = Pharmacokinetics after iv and oral administration, P‐S difference method, Bcrp(−/−) mice; type: in vivo
Protocol: as §1, §2, §3, §4, §5, §6, §7, §8

[8] = Mdr1a/1b(−/−) mice, p.o. (ciprofloxacin 1, nitrofurantoin 2, topotecan 1, sulfasalazine 5 mg/kg)
[9] = male, Mdr1a/1b(−/−) (FVB background), mouse, systemic plasma (abdominal vein), po
[10] = wild‐type mice, p.o. (ciprofloxacin 1, nitrofurantoin 2, topotecan 1, sulfasalazine 5 mg/kg)
[11] = wild‐type mice, p.o. (ciprofloxacin 1, nitrofurantoin 2, topotecan 1, sulfasalazine 5 mg/kg), systemic (sys) plasma
[12] = Bcrp(−/−) mice, p.o. (ciprofloxacin 1, nitrofurantoin 2, topotecan 1, sulfasalazine 5 mg/kg)
[13] = Bcrp(−/−) mice, p.o. (ciprofloxacin 1, nitrofurantoin 2, topotecan 1, sulfasalazine 5 mg/kg), systemic (sys) plasma

- F h [2, 8]: 55.6%
- k a [2, 8]: 0.93 h⁻¹
- BA ([2]; Mdr1a/1b(−/−) mice, p.o. (ciprofloxacin 1, nitrofurantoin 2, topotecan 1, sulfasalazine 5 mg/kg) vs iv 1 mg/kg): 11.5%
- F a F g ([2]; Mdr1a/1b(−/−) mice, p.o. (ciprofloxacin 1, nitrofurantoin 2, topotecan 1, sulfasalazine 5 mg/kg), P‐S difference method): 30%
- k a, P‐gp ([2]; Table 5 summary, Mdr1a/1b(−/−) mice, oral administration): 0.93
- (F a F g)P‐gp ([2]; as fraction, Mdr1a/1b(−/−) mice, oral administration): 0.30
- clearance ([2]; male, FVB Mdr1a/1b(−/−), mouse, plasma (systemic, abdominal vein), Mdr1a/1b(−/−) mice, iv 1 mg/kg, read-out: CL tot (converted)): 0.59 L/h/kg
- Vd ([2]; male, FVB Mdr1a/1b(−/−), mouse, plasma (systemic, abdominal vein), Mdr1a/1b(−/−) mice, iv 1 mg/kg, read-out: Vdss): 0.45 L/kg
- half-life ([2]; male, Mdr1a/1b(−/−) (FVB background), mouse, plasma, Mdr1a/1b(−/−) mice, iv 1 mg/kg): 1.63 h
- AUC(0-inf) ([2]; male, Mdr1a/1b(−/−) (FVB background), mouse, plasma, Mdr1a/1b(−/−) mice, iv 1 mg/kg, read-out: AUC 0→∞): 4.28 µM·h
- Tmax ([2]; male, Mdr1a/1b(−/−) (FVB background), mouse, portal vein plasma, po): 0.17 h
- Tmax [2, 9]: 0.5 h
- half-life [2, 9]: 1.11 h
- k a, wt ([3]; Table 5 summary, WT mice, oral administration): 1.40
- C0 ([3]; male, FVB (wild-type), mouse, plasma (systemic, abdominal vein), WT mice, intravenous injection 1 mg/kg, read-out: extrapolated plasma concentration at zero time (C 0)): 11.7 µM
- clearance ([3]; male, FVB (wild-type), mouse, plasma (systemic, abdominal vein), wild‐type mice, iv 1 mg/kg, read-out: CL tot (converted)): 0.66 L/h/kg
- Vd ([3]; male, FVB (wild-type), mouse, plasma (systemic, abdominal vein), wild‐type mice, iv 1 mg/kg, read-out: Vdss): 0.59 L/kg
- half-life ([3]; male, FVB (wild-type), mouse, plasma, iv, 1 mg/kg, wild‐type mice, iv 1 mg/kg): 1.95 h
- AUC(0-inf) ([3]; male, FVB (wild-type), mouse, plasma, iv, 1 mg/kg, wild‐type mice, iv 1 mg/kg, read-out: AUC 0→∞): 3.82 µM·h
- Tmax ([3]; male, FVB (wild-type), mouse, portal vein plasma, po): 0.17 h
- AUC(0-inf) ([3]; male, FVB (wild-type), mouse, portal vein plasma, po, wild‐type mice, p.o. (ciprofloxacin 1, nitrofurantoin 2, topotecan 1, sulfasalazine 5 mg/kg), portal vein (pv) plasma, read-out: AUC 0→∞ (AUCpv)): 2.2 µM·h
- Tmax ([3]; male, FVB (wild-type), mouse, systemic plasma (abdominal vein), po): 0.5 h
- half-life ([3]; male, FVB (wild-type), mouse, systemic plasma (abdominal vein), po, wild‐type mice, p.o. (ciprofloxacin 1, nitrofurantoin 2, topotecan 1, sulfasalazine 5 mg/kg), systemic (sys) plasma): 1 h
- AUC(0-inf) ([3]; male, FVB (wild-type), mouse, systemic plasma (abdominal vein), po, wild‐type mice, p.o. (ciprofloxacin 1, nitrofurantoin 2, topotecan 1, sulfasalazine 5 mg/kg), systemic (sys) plasma, read-out: AUC 0→∞ (AUCsys)): 1.94 µM·h
- F h [3, 10]: 60.1%
- k a [3, 10]: 1.40 h⁻¹
- BA ([3]; wild‐type mice, p.o. (ciprofloxacin 1, nitrofurantoin 2, topotecan 1, sulfasalazine 5 mg/kg) vs iv 1 mg/kg): 10.2%
- F a F g ([3]; wild‐type mice, p.o. (ciprofloxacin 1, nitrofurantoin 2, topotecan 1, sulfasalazine 5 mg/kg), P‐S difference method): 16.9%
- AUC 0→∞ (AUCpv) ([3]; wild‐type mice, p.o. (ciprofloxacin 1, nitrofurantoin 2, topotecan 1, sulfasalazine 5 mg/kg), portal vein (pv) plasma): 2.2 µM·h
- AUC 0→∞ (AUCsys) [3, 11]: 1.94 µM·h
- t 1/2 [3, 11]: 1.11 h
- blood plasma ratio at 15 min, 1 µg/mL [5]: 1.28 ± 0.03
- R P‐gp (rate of P‐gp contribution) [6]: 0.09
- F h [7, 12]: 73.2%
- k a [7, 12]: 0.49 h⁻¹
- BA ([7]; Bcrp(−/−) mice, p.o. (ciprofloxacin 1, nitrofurantoin 2, topotecan 1, sulfasalazine 5 mg/kg) vs iv 1 mg/kg): 95.2%
- AUC 0→∞ (AUCpv) ([7]; Bcrp(−/−) mice, p.o. (ciprofloxacin 1, nitrofurantoin 2, topotecan 1, sulfasalazine 5 mg/kg), portal vein (pv) plasma): 290 000 nmol/L·h
- AUC 0→∞ (AUCsys) [7, 13]: 288 000 nmol/L·h
- t 1/2 [7, 13]: 7.07 h
- k a, bcrp ([7]; Table 5 summary, Bcrp(−/−) mice, oral administration): 0.49
- (F a F g)bcrp ([7]; as fraction, Bcrp(−/−) mice, oral administration): 1.30
- half-life ([7]; male, Bcrp(−/−) (FVB background), mouse, plasma, iv, 1 mg/kg, Bcrp(−/−) mice, iv 1 mg/kg): 3.57 h
- Tmax ([7]; male, Bcrp(−/−) (FVB background), mouse, portal vein plasma, po): 2 h
- Tmax ([7]; male, Bcrp(−/−) (FVB background), mouse, systemic plasma (abdominal vein), po): 2 h
- AUC(0-inf) ([7]; male, FVB Bcrp(−/−), mouse, plasma (systemic, abdominal vein), iv, 1 mg/kg, Bcrp(−/−) mice, iv 1 mg/kg, read-out: AUC 0→∞): 60.5 µM·h
- C0 ([7]; male, FVB Bcrp(−/−), mouse, plasma (systemic, abdominal vein), Bcrp(−/−) mice, intravenous injection 1 mg/kg, read-out: extrapolated plasma concentration at zero time (C 0)): 18.1 µM
- clearance ([7]; male, FVB Bcrp(−/−), mouse, plasma (systemic, abdominal vein), Bcrp(−/−) mice, iv 1 mg/kg, read-out: CL tot (converted)): 0.04 L/h/kg
- Vd ([7]; male, FVB Bcrp(−/−), mouse, plasma (systemic, abdominal vein), Bcrp(−/−) mice, iv 1 mg/kg, read-out: Vdss): 0.19 L/kg
- AUC(0-inf) ([7]; male, FVB Bcrp(−/−), mouse, portal vein plasma, po, Bcrp(−/−) mice, p.o. (ciprofloxacin 1, nitrofurantoin 2, topotecan 1, sulfasalazine 5 mg/kg), portal vein (pv) plasma, read-out: AUC 0→∞ (AUCpv)): 290 µM·h
- half-life ([7]; male, FVB Bcrp(−/−), mouse, systemic plasma (abdominal vein), po, Bcrp(−/−) mice, p.o. (ciprofloxacin 1, nitrofurantoin 2, topotecan 1, sulfasalazine 5 mg/kg), systemic (sys) plasma): 7 h
- AUC(0-inf) ([7]; male, FVB Bcrp(−/−), mouse, systemic plasma (abdominal vein), po, Bcrp(−/−) mice, p.o. (ciprofloxacin 1, nitrofurantoin 2, topotecan 1, sulfasalazine 5 mg/kg), systemic (sys) plasma, read-out: AUC 0→∞ (AUCsys)): 288 µM·h
- AUC pv and AUC sys after oral administration, Bcrp(−/−) mice vs WT mice ([7]; oral administration): more than 130 fold
SMILES: O=C(O)c1cc(/N=N/c2ccc(S(=O)(=O)Nc3ccccn3)cc2)ccc1O [sulfasalazine, Sulfasalazine]
- AQp‐gp in vitro (Caco‐2) [1]: 0.05
- AUC after oral administration, patients heterozygous variant for the BCRP SNP vs normal BCRP [4]: approximately 2 fold
- human BA [4]: < 15%
- human F a F g [4]: 12%
